pIC50: −log10 of the molar value.
Experiments:
Experiment in all cases: Cell proliferation inhibition experiment, CellTiter-Glo (CTG) method
Format in all cases: cell-based
[1] = test system: NCI-H1975; settings: for pIC50: Homo sapiens, NCI-H1975, 72 h, NCI-H1975 cells, CTG, 3 days; for A-431/NCI-H1975 Selectivity: ratio of A-431 IC50 to NCI-H1975 IC50
Method: (§1) Cell Proliferation Inhibition Experiment
(§2) Compounds were tested in the selected cell lines, and solvent is set as control, nine concentrations were detected with three parallel wells for each concentration.
(§3) 2. Reagents and Materials • 1) fetal bovine serum FBS (GIBCO, Cat #10099-141) • 2) CellTiter-Glo® Luminescent Cell Viability Assay (Promega, Cat #G7572) • 3) 96-well plate with flat clear bottom, black wall plates (Corning®, Cat #3340)
(§4) The first day: Incubation and plant of cells • 1) Cells in logarithmic growth phase were harvested and counted by cell counter. Cell viability was detected by trypan blue exclusion assay to ensure that the viability of each cell line was above 90%. • 2) Cell concentration was adjusted by diluting complete culture medium, and 90 μL cell suspension was added to a 96-well plate (T0 plate and drug plate to be tested) to make the cell density reach the specified concentration. • 3) Cells in 96-well plate were incubated overnight at condition of 37° C., 5% CO2 and 95% humidity.
(§5) The second day: Reading T0 plate • 1) 10 μL culture medium was added to T0 plate. • 2) CTG reagent was melt, while the cell plate was balanced to room temperature for 30 minutes. • 3) The same volume of CTG solution was added to each well. • 4) The cell plate was vibrated for 2 minutes on an orbital shaker to lyze the cells. • 5) The cell plate was placed at room temperature for 10 minutes to stabilize the cold light signal. • 6) The cold light value was read with EnVision.
(§6) Drug Addition • 1) Drug dilution. The compounds to be tested were dissolved and packaged, then a gradient elution was performed to obtain a solution diluted 10 times. • 2) Drug addition. […] drug solution was added into each well of the 96-well plate, which was inoculated cells, three parallel wells were set for each cell concentration.
(§7) The third day: reading plate at the terminal • 1) CTG reagent was melt, while the cell plate was balanced to room temperature for 30 minutes. • 2) The same volume of CTG solution was added to each well. • 3) The cell plate was vibrated for 2 minutes on an orbital shaker to lyze the cells. • 4) The cell plate was placed at room temperature for 10 minutes to stabilize the cold light signal. • 5) The cold light value was read with EnVision
(§8) Data were analyzed using GraphPad Prism 5.0 software, and non-linear S curve regression was used for fitting the data to give a dose-effect curve, IC50 value was calculated accordingly. Cell Survival Rate (%)=(Lumdrugs−Lumcontrol)/(Lumcell−Lumcontrol)×100%.

[2] = test system: PC-9; settings: Homo sapiens, PC-9, 72 h, PC-9 cells, 3 days
Method: as §1, §2, §3, §4, §5, §6, §7, §8

[3] = test system: A-431; settings: Homo sapiens, A-431, 72 h, A-431 cells, 3 days
Method: as §1, §2, §3, §4, §5
Drug Addition • 1) Drug dilution. The compounds to be tested were dissolved and packaged, then a gradient elution was performed to obtain a solution diluted 10 times. • 2) Drug addition. […] drug solution was added into each well of the 96-well plate, which was inoculated cells, three parallel wells were set for each cell concentration. The highest concentration of the compounds to be tested on A-431 was 30 μM, nine concentrations was set with 3 times dilution; while the highest concentration on NCI-H1975 and PC-9 was 1.111 μM, 9 concentrations was set with 3 times dilution. • 3) Culture. Cells in 96-well plates in which drugs have been added were cultured at condition of 37° C., 5% CO2 and 95% humidity for 3 days, and then CTG assay was performed respectively.
as §7, §8

SMILES: C=CC(=O)Nc1cc(Nc2cc(-c3ccc4cnn(C)c4c3)ncn2)c(OC)cc1N1CCN(CCO)CC1 [compound 274]
- pIC50 [1]: 7.33
- A-431/NCI-H1975 Selectivity [1]: 43.4
- pIC50 [2]: 7.25
- pIC50 [3]: 5.69

SMILES: C=CC(=O)Nc1c(N(C)CCN(C)C(C)C)cc(OC)c(Nc2cc(-c3ccc4cnn(C)c4c3)ncn2)c1F [compound 198]
- pIC50 [1]: 7.11
- A-431/NCI-H1975 Selectivity [1]: 30.4
- pIC50 [2]: 7.18
- pIC50 [3]: 5.63

SMILES: C=CC(=O)Nc1cc(Nc2cc(-c3ccc4cnn(C)c4c3)ncn2)c(OC)cc1N(C)C1CCN(CCOC)CC1 [compound 225]
- pIC50 [1]: 7.12
- A-431/NCI-H1975 Selectivity [1]: 32.9
- pIC50 [2]: 7.17
- pIC50 [3]: 5.61

SMILES: C=CC(=O)Nc1cc(Nc2cc(-c3ccc4c(cnn4C)c3)ncn2)c(OC)cc1N1CCCN(C)CC1 [compound 39]
- pIC50 [1]: 7.61
- A-431/NCI-H1975 Selectivity [1]: 39.6
- pIC50 [2]: 7.59
- pIC50 [3]: 6.01

SMILES: C=CC(=O)Nc1cc(Nc2nccc(-c3ccc4cnn(C(C)C)c4c3)n2)c(OC)cc1N(C)CCN(C)C [compound 17]
- pIC50 [1]: 7.65
- A-431/NCI-H1975 Selectivity [1]: 56.2
- pIC50 [2]: 7.77
- pIC50 [3]: 5.90

SMILES: C=CC(=O)Nc1cc(Nc2cc(-c3ccc4c(cnn4C)c3)ncn2)c(OC)cc1N(C)CCN(C)CC [compound 88]
- pIC50 [1]: 8.21
- A-431/NCI-H1975 Selectivity [1]: 161.8
- pIC50 [2]: 8.14
- pIC50 [3]: 6.01

SMILES: C=CC(=O)Nc1cc(Nc2cc(-c3ccc4c(cnn4C)c3)ncn2)c(OC(F)F)cc1N(C)CCN(C)C [compound 287]
- pIC50 [1]: 8.40
- A-431/NCI-H1975 Selectivity [1]: 152.9
- pIC50 [2]: 8.04
- pIC50 [3]: 6.21

SMILES: C=CC(=O)Nc1cc(Nc2nccc(-c3ccc4c(cnn4C)c3)n2)c(OC)cc1NCCN(C)C [compound 248]
- pIC50 [1]: 7.88
- A-431/NCI-H1975 Selectivity [1]: 214.3
- pIC50 [2]: 7.56
- pIC50 [3]: 5.55

SMILES: C=CC(=O)Nc1cc(Nc2cc(-c3ccc4cnn(C)c4c3)ncn2)c(OC)cc1N1CCCN(C)CC1 [compound 47]
- pIC50 [1]: 7.31
- A-431/NCI-H1975 Selectivity [1]: 13.7
- pIC50 [2]: 7.47
- pIC50 [3]: 6.17

SMILES: C=CC(=O)Nc1cc(Nc2nccc(-c3ccc4c(cnn4C)c3)n2)c(OCC)cc1N(C)CCN(C)CC [compound 258]
- pIC50 [1]: 7.29
- A-431/NCI-H1975 Selectivity [1]: 57.1
- pIC50 [2]: 7.49
- pIC50 [3]: 5.53

SMILES: C=CC(=O)Nc1cc(Nc2nccc(-c3ccc4c(cnn4C)c3)n2)c(OC2CC2)cc1N(C)CCN(C)C [compound 292]
- pIC50 [1]: 7.04
- A-431/NCI-H1975 Selectivity [1]: 32.9
- pIC50 [2]: 7.19
- pIC50 [3]: 5.53

SMILES: C=CC(=O)Nc1cc(Nc2cc(-c3ccc4cnn(C)c4c3)ncn2)c(OC)cc1N(C)CCN(C)C [compound 2]
- pIC50 [1]: 8.18
- pIC50 [2]: 8.36
- pIC50 [3]: 6.44

SMILES: C=CC(=O)Nc1cc(Nc2cc(-c3ccc4ncsc4c3)ncn2)c(OC)cc1N1C[C@@H](C)N(C)[C@@H](C)C1 [compound 82]
- pIC50 [1]: 7.62
- A-431/NCI-H1975 Selectivity [1]: 45.6
- pIC50 [2]: 7.53
- pIC50 [3]: 5.96

SMILES: C=CC(=O)Nc1cc(Nc2cc(-c3ccc4c(cnn4CC)c3)ncn2)c(OCC)cc1N(C)CCN(CC)CC [compound 94]
- pIC50 [1]: 7.32
- A-431/NCI-H1975 Selectivity [1]: 42.6
- pIC50 [2]: 7.25
- pIC50 [3]: 5.69

SMILES: C=CC(=O)Nc1cc(Nc2cc(-c3ccc4c(cnn4C)c3)ncn2)c(OC)cc1N(C)CCNC(C)C [compound 263]
- pIC50 [1]: 8.04
- A-431/NCI-H1975 Selectivity [1]: 131.9
- pIC50 [2]: 7.73
- pIC50 [3]: 5.92

SMILES: C=CC(=O)Nc1cc(Nc2cc(-c3ccc4cnn(C)c4c3)ncn2)c(OC)cc1N1CCC(N2CCC(OC)CC2)CC1 [compound 205]
- pIC50 [1]: 7.89
- pIC50 [2]: 8.12
- pIC50 [3]: 6.05

SMILES: C=CC(=O)Nc1cc(Nc2cc(-c3cc(F)c4c(cnn4C)c3)ncn2)c(OC)cc1N(C)CCN(C)C [compound 6]
- pIC50 [1]: 7.49
- A-431/NCI-H1975 Selectivity [1]: 53.7
- pIC50 [2]: 7.71
- pIC50 [3]: 5.76

SMILES: C=CC(=O)Nc1cc(Nc2cc(-c3ccc4c(cnn4C)c3)ncn2)c(OC)cc1N(C)CCNC(C)(C)C [compound 61]
- pIC50 [1]: 7.75
- pIC50 [2]: 8.03
- pIC50 [3]: 5.79

SMILES: C=CC(=O)Nc1cc(Nc2cc(-c3ccc4c(cnn4C)c3)ncn2)c(OC)cc1N1CCN(C)C[C@H]1C [compound 21]
- pIC50 [1]: 7.33
- A-431/NCI-H1975 Selectivity [1]: 59.7
- pIC50 [2]: 7.53
- pIC50 [3]: 5.56

SMILES: C=CC(=O)Nc1cc(Nc2cc(-c3ccc4c(cnn4C)c3)ncn2)c(OCC)cc1N(C)CCN(C)CC [compound 140]
- pIC50 [1]: 7.93
- A-431/NCI-H1975 Selectivity [1]: 84.4
- pIC50 [2]: 7.86
- pIC50 [3]: 6.01

SMILES: C=CC(=O)Nc1cc(Nc2cc(-c3ccc4cnn(C)c4c3)ncn2)c(OC)cc1N1CCN(C)[C@@H](C)C1 [compound 50]
- pIC50 [1]: 7.23
- A-431/NCI-H1975 Selectivity [1]: 18.2
- pIC50 [2]: 7.32
- pIC50 [3]: 5.97

SMILES: C=CC(=O)Nc1c(OCCN(C)C)cc(OC)c(Nc2cc(-c3ccc4c(cnn4C)c3)ncn2)c1F [compound 178]
- pIC50 [1]: 7.37
- A-431/NCI-H1975 Selectivity [1]: 46.7
- pIC50 [2]: 7.46
- pIC50 [3]: 5.70

SMILES: C=CC(=O)Nc1c(N(C)CCN(C)C(C)C)cc(OC)c(Nc2cc(-c3ccc4c(cnn4C)c3)ncn2)c1F [compound 197]
- pIC50 [1]: 7.68
- A-431/NCI-H1975 Selectivity [1]: 65.1
- pIC50 [2]: 7.87
- pIC50 [3]: 5.87

SMILES: C=CC(=O)Nc1cc(Nc2cc(-c3ccc4c(cnn4C)c3)ncn2)c(OC)cc1N1C[C@@H]2C[C@H]1CN2C [compound 25]
- pIC50 [1]: 7.26
- A-431/NCI-H1975 Selectivity [1]: 13.5
- pIC50 [2]: 7.17
- pIC50 [3]: 6.13

SMILES: C=CC(=O)Nc1cc(Nc2nccc(-c3ccc4c(cnn4C)c3)n2)c(OC)cc1N1CCN(CCO)CC1 [compound 278]
- pIC50 [1]: 6.93
- A-431/NCI-H1975 Selectivity [1]: 21.2
- pIC50 [2]: 7.39
- pIC50 [3]: 5.61

SMILES: C=CC(=O)Nc1cc(Nc2cc(-c3ccc4c(cnn4C)c3)ncn2)c(OC)cc1N(C)C1CCN(C2CCOCC2)CC1 [compound 220]
- pIC50 [1]: 7.22
- A-431/NCI-H1975 Selectivity [1]: 40.1
- pIC50 [2]: 7.26
- pIC50 [3]: 5.61

SMILES: C=CC(=O)Nc1cc(Nc2nccc(-c3ccc4c(cnn4C)c3)n2)c(OC(F)F)cc1N(C)CCNC(C)(C)C [compound 247]
- pIC50 [1]: 7.43
- A-431/NCI-H1975 Selectivity [1]: 80.5
- pIC50 [2]: 7.43
- pIC50 [3]: 5.52

SMILES: C=CC(=O)Nc1cc(Nc2cc(-c3ccc4cnn(C)c4c3)ncn2)c(OC)cc1N1CCC(C2CCN(C)CC2)CC1 [compound 53]
- pIC50 [1]: 6.82
- A-431/NCI-H1975 Selectivity [1]: 8.3
- pIC50 [2]: 7.17
- pIC50 [3]: 5.90

SMILES: C=CC(=O)Nc1cc(Nc2nccc(-c3ccc4c(cnn4C)c3)n2)c(OC)cc1N1C[C@@H](C)N(C)[C@@H](C)C1 [compound 229]
- pIC50 [1]: 7.03
- A-431/NCI-H1975 Selectivity [1]: 17.3
- pIC50 [2]: 7.17
- pIC50 [3]: 5.79

SMILES: C=CC(=O)Nc1cc(Nc2cc(-c3ccc4c(cnn4C)c3)ncn2)c(OC)cc1N1CCOCC1 [compound 102]
- pIC50 [1]: 7.85
- A-431/NCI-H1975 Selectivity [1]: 70.0
- pIC50 [2]: 7.90
- pIC50 [3]: 6.01

SMILES: C=CC(=O)Nc1cc(Nc2cc(-c3ccc4c(cnn4C)c3)ncn2)c(OC(F)F)cc1N1CCN(CCOC)CC1 [compound 145]
- pIC50 [1]: 7.43
- A-431/NCI-H1975 Selectivity [1]: 39.3
- pIC50 [2]: 7.47
- pIC50 [3]: 5.84

SMILES: C=CC(=O)Nc1c(N(C)CCN(C)CC)cc(OC)c(Nc2cc(-c3ccc4c(cnn4C)c3)ncn2)c1F [compound 200]
- pIC50 [1]: 7.85
- pIC50 [2]: 7.57
- pIC50 [3]: 6.01

SMILES: C=CC(=O)Nc1cc(Nc2cc(-c3ccc4cnn(C)c4c3)ncn2)c(OC)cc1N1CCN(C)[C@H](C)C1 [compound 51]
- pIC50 [1]: 7.16
- A-431/NCI-H1975 Selectivity [1]: 20.8
- pIC50 [2]: 7.22
- pIC50 [3]: 5.84

SMILES: C=CC(=O)Nc1cc(Nc2nccc(-c3ccc4c(cnn4C)c3)n2)c(OC)cc1N(C)CCN1CCN(C2CC2)CC1 [compound 252]
- pIC50 [1]: 6.73
- A-431/NCI-H1975 Selectivity [1]: 16.0
- pIC50 [2]: 7.59
- pIC50 [3]: 5.52

Reference: US11352352B2, “Aminopyrimidine compound, preparation method therefor and use thereof” (BEIJING ADAMADLE BIOTECHNOLOGY LIMITED LIABILITY COMPANY, priority 2017, dated 2022)
